Experimental data: PubChem BioAssay (NCI)
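Exposure lasted 48 hours, with cells grown in 96-well plates and compounds tested at five concentrations. The concentration for full growth arrest is given as TGI.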

Experiments:
Experiment in all cases: inhibition of tumour cell growth, NCI panel, 48 h
UACC-257 melanoma = tested on: UACC-257 melanoma
CCRF-CEM leukemia = tested on: CCRF-CEM leukemia
HT29 colon = tested on: HT29 colon
MALME-3M melanoma = tested on: MALME-3M melanoma
HS 578T breast = tested on: HS 578T breast
OVCAR-4 ovarian = tested on: OVCAR-4 ovarian
RPMI-8226 leukemia = tested on: RPMI-8226 leukemia
A498 renal = tested on: A498 renal
SF-539 CNS = tested on: SF-539 CNS
TK-10 renal = tested on: TK-10 renal
MDA-MB-231 breast = tested on: MDA-MB-231 breast
SK-OV-3 ovarian = tested on: SK-OV-3 ovarian
SK-MEL-5 melanoma = tested on: SK-MEL-5 melanoma
NCI-H23 lung = tested on: NCI-H23 lung
NCI/ADR-RES ovarian = tested on: NCI/ADR-RES ovarian
CAKI-1 renal = tested on: CAKI-1 renal
SF-268 CNS = tested on: SF-268 CNS
HOP-92 NSCLC = tested on: HOP-92 NSCLC
PC-3 prostate = tested on: PC-3 prostate
OVCAR-5 ovarian = tested on: OVCAR-5 ovarian
UACC-62 melanoma = tested on: UACC-62 melanoma
COLO 205 colon = tested on: COLO 205 colon
HCT-15 colon = tested on: HCT-15 colon
OVCAR-8 ovarian = tested on: OVCAR-8 ovarian
MDA-N = tested on: MDA-N
NCI-H522 lung = tested on: NCI-H522 lung
A549 NSCLC = tested on: A549 NSCLC
SR leukemia = tested on: SR leukemia
U251 CNS = tested on: U251 CNS
SNB-19 CNS = tested on: SNB-19 CNS
UO-31 renal = tested on: UO-31 renal
SN12C renal = tested on: SN12C renal
NCI-H460 lung = tested on: NCI-H460 lung
HL-60(TB) leukemia = tested on: HL-60(TB) leukemia
EKVX NSCLC = tested on: EKVX NSCLC
786-0 renal = tested on: 786-0 renal
SK-MEL-2 melanoma = tested on: SK-MEL-2 melanoma
SW-620 colon = tested on: SW-620 colon
M14 melanoma = tested on: M14 melanoma
T-47D breast = tested on: T-47D breast
NCI-H226 lung = tested on: NCI-H226 lung
HCT-116 colon = tested on: HCT-116 colon
MCF7 breast = tested on: MCF7 breast
DU-145 prostate = tested on: DU-145 prostate
RXF 393 renal = tested on: RXF 393 renal
MDA-MB-435 = tested on: MDA-MB-435
HOP-62 NSCLC = tested on: HOP-62 NSCLC
SK-MEL-28 melanoma = tested on: SK-MEL-28 melanoma
SNB-75 CNS = tested on: SNB-75 CNS
K-562 leukemia = tested on: K-562 leukemia
ACHN renal = tested on: ACHN renal
KM12 colon = tested on: KM12 colon
HCC-2998 colon = tested on: HCC-2998 colon
IGROV1 ovarian = tested on: IGROV1 ovarian
MOLT-4 leukemia = tested on: MOLT-4 leukemia
SF-295 CNS = tested on: SF-295 CNS
LOX IMVI melanoma = tested on: LOX IMVI melanoma
OVCAR-3 ovarian = tested on: OVCAR-3 ovarian

With Cc1ccc(S(=O)(=O)NNC(=O)Nc2ccc(Cl)cc2)cc1 the TGI (UACC-257 melanoma) was > 100 µM, the TGI (CCRF-CEM leukemia) was > 100 µM and the TGI (HT29 colon) was > 100 µM. For the same molecule, the TGI (MALME-3M melanoma) was > 100 µM, the TGI (HS 578T breast) was > 100 µM and the TGI (OVCAR-4 ovarian) was > 100 µM. The TGI (RPMI-8226 leukemia) was > 100 µM, the TGI (A498 renal) was > 100 µM and the TGI (SF-539 CNS) was > 100 µM. The TGI (TK-10 renal) was > 100 µM, the TGI (MDA-MB-231 breast) was > 100 µM and the TGI (SK-OV-3 ovarian) was > 100 µM. For the same molecule, the TGI (SK-MEL-5 melanoma) was > 100 µM, the TGI (NCI-H23 lung) was > 100 µM and the TGI (NCI/ADR-RES ovarian) was > 100 µM. For the same molecule, the TGI (CAKI-1 renal) was > 100 µM, the TGI (SF-268 CNS) was > 100 µM and the TGI (HOP-92 NSCLC) was > 100 µM. The TGI (PC-3 prostate) was > 100 µM, the TGI (OVCAR-5 ovarian) was > 100 µM and the TGI (UACC-62 melanoma) was > 100 µM. The TGI (COLO 205 colon) was > 100 µM, the TGI (HCT-15 colon) was > 100 µM and the TGI (OVCAR-8 ovarian) was > 100 µM. For the same molecule, the TGI (MDA-N) was > 100 µM, the TGI (NCI-H522 lung) was > 100 µM and the TGI (A549 NSCLC) was > 100 µM. For the same molecule, the TGI (SR leukemia) was > 100 µM, the TGI (U251 CNS) was > 100 µM and the TGI (SNB-19 CNS) was > 100 µM. The TGI (UO-31 renal) was > 100 µM, the TGI (SN12C renal) was > 100 µM and the TGI (NCI-H460 lung) was > 100 µM. For the same molecule, the TGI (HL-60(TB) leukemia) was > 100 µM, the TGI (EKVX NSCLC) was > 100 µM and the TGI (786-0 renal) was > 100 µM. For the same molecule, the TGI (SK-MEL-2 melanoma) was > 100 µM, the TGI (SW-620 colon) was > 100 µM and the TGI (M14 melanoma) was > 100 µM. For the same molecule, the TGI (T-47D breast) was > 100 µM, the TGI (NCI-H226 lung) was > 100 µM and the TGI (HCT-116 colon) was > 100 µM. For the same molecule, the TGI (MCF7 breast) was > 100 µM, the TGI (DU-145 prostate) was > 100 µM and the TGI (RXF 393 renal) was > 100 µM. The TGI (MDA-MB-435) was > 100 µM, the TGI (HOP-62 NSCLC) was > 100 µM and the TGI (SK-MEL-28 melanoma) was > 100 µM. The TGI (SNB-75 CNS) was 99.7 µM, the TGI (K-562 leukemia) was > 100 µM and the TGI (ACHN renal) was > 100 µM. For the same molecule, the TGI (KM12 colon) was > 100 µM, the TGI (HCC-2998 colon) was > 100 µM and the TGI (IGROV1 ovarian) was > 100 µM. For the same molecule, the TGI (MOLT-4 leukemia) was > 100 µM and the TGI (SF-295 CNS) was > 100 µM.
For O=[N+]([O-])C(=C1NCCN1)C(Cl)=C(Cl)Cl, the TGI (UACC-257 melanoma) was > 100 µM, the TGI (CCRF-CEM leukemia) was > 100 µM and the TGI (HT29 colon) was > 100 µM. For the same molecule, the TGI (MALME-3M melanoma) was > 100 µM, the TGI (HS 578T breast) was > 100 µM and the TGI (OVCAR-4 ovarian) was > 100 µM. The TGI (RPMI-8226 leukemia) was > 100 µM, the TGI (A498 renal) was > 100 µM and the TGI (SF-539 CNS) was > 100 µM. For the same molecule, the TGI (TK-10 renal) was > 100 µM, the TGI (MDA-MB-231 breast) was > 100 µM and the TGI (SK-OV-3 ovarian) was > 100 µM. The TGI (SK-MEL-5 melanoma) was > 100 µM, the TGI (NCI-H23 lung) was > 100 µM and the TGI (NCI/ADR-RES ovarian) was > 100 µM. The TGI (CAKI-1 renal) was > 100 µM, the TGI (SF-268 CNS) was > 100 µM and the TGI (PC-3 prostate) was > 100 µM. The TGI (OVCAR-5 ovarian) was > 100 µM, the TGI (UACC-62 melanoma) was > 100 µM and the TGI (COLO 205 colon) was > 100 µM. The TGI (HCT-15 colon) was > 100 µM, the TGI (OVCAR-8 ovarian) was > 100 µM and the TGI (LOX IMVI melanoma) was > 100 µM. For the same molecule, the TGI (MDA-N) was > 100 µM, the TGI (NCI-H522 lung) was > 100 µM and the TGI (A549 NSCLC) was > 100 µM. For the same molecule, the TGI (SR leukemia) was > 100 µM, the TGI (U251 CNS) was > 100 µM and the TGI (SNB-19 CNS) was > 100 µM. The TGI (UO-31 renal) was > 100 µM, the TGI (SN12C renal) was > 100 µM and the TGI (NCI-H460 lung) was > 100 µM. For the same molecule, the TGI (HL-60(TB) leukemia) was > 100 µM, the TGI (EKVX NSCLC) was > 100 µM and the TGI (786-0 renal) was > 100 µM. The TGI (SK-MEL-2 melanoma) was > 100 µM, the TGI (M14 melanoma) was > 100 µM and the TGI (T-47D breast) was > 100 µM. The TGI (NCI-H226 lung) was > 100 µM, the TGI (HCT-116 colon) was > 100 µM and the TGI (MCF7 breast) was > 100 µM. The TGI (DU-145 prostate) was > 100 µM, the TGI (RXF 393 renal) was > 100 µM and the TGI (MDA-MB-435) was > 100 µM. The TGI (HOP-62 NSCLC) was > 100 µM, the TGI (SK-MEL-28 melanoma) was > 100 µM and the TGI (K-562 leukemia) was > 100 µM. For the same molecule, the TGI (ACHN renal) was > 100 µM, the TGI (KM12 colon) was > 100 µM and the TGI (HCC-2998 colon) was > 100 µM. The TGI (IGROV1 ovarian) was > 100 µM, the TGI (MOLT-4 leukemia) was > 100 µM and the TGI (SF-295 CNS) was > 100 µM. The TGI (OVCAR-3 ovarian) was > 100 µM.
